# Source: US5578622A, “Isothiazole derivatives and their uses” (Asamura Patent Office, priority 1994, dated 1996)
# Columns and labels:
# Trichoderma viride = experiment: Test for wood rotting-preventing effect (mycelium growth inhibition on malt extract agar); format: cell-based; settings: 28° C.±2° C., 2 to 10 days, read-out: Rotting preventing effect (mycelium growth-inhibitory rate), TRV
# Method in brief: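 Mycelial agar disks (4 mm) placed on malt extract agar containing 50 ppm test compound and cultured at 28 °C ± 2 °C. Colony diameter measured 2–10 days after inoculation; growth-inhibitory rate (%) reported as symbol grades.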
# Aspergillus niger = experiment: as above; format: cell-based; settings: 28° C.±2° C., 2 to 10 days, read-out: Rotting preventing effect (mycelium growth-inhibitory rate), ASN
# Method in brief: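 Mycelial agar disks (4 mm) placed on malt extract agar containing 50 ppm test compound, incubated at 28° C.±2° C. Colony diameter measured 2–10 days after inoculation; growth-inhibitory rate (%) reported as symbol-coded score.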
# Rhizopus nigricans = experiment: as above; format: cell-based; settings: Rhizopus stolonifer, 28° C.±2° C., 2 to 10 days, read-out: Rotting preventing effect (mycelium growth-inhibitory rate), RHN
# Method in brief: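 Mycelial agar disks (4 mm) placed on malt extract agar containing 50 ppm test compound and grown at 28 °C ± 2 °C. Colony diameter measured 2-10 days after inoculation; mycelium growth-inhibitory rate (%) reported as a symbol score.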
# Rhizoctonia solani = experiment: Test for controlling effect on sheath blight of rice; format: in vivo; settings: 120 h, 200 ppm spray, 24 hours after inoculation, rice 4-leaf stage, five days after inoculation, read-out: Controlling effect (control of disease), Sheath blight of rice
# Protocol: 2-3 Test for controlling effect on sheath blight of rice (Rhizoctonia solani) Rice seedlings at the 4-leaf stage were inoculated with the mycelium of sheath blight of rice (Rhizoctonia solani). After 24 hours, a test medicine solution adjusted to 200 ppm was sprayed onto the seedlings. After air-drying, the seedlings were placed in a humid room for 24 hours where the temperature was kept at 28° C. and humidity was kept at 98%. Thereafter, the seedlings were transferred to a greenhouse, and five days after inoculation, the degree of infected area was examined. The control of disease was calculated by comparison with that in the untreated plot. The control of disease is shown as a controlling effect in the same manner as in Test Example 2-1.
# [1] = tested on: Candida albicans IFO 1270; experiment: In vitro antimycotic activity on Candida albicans; format: cell-based; settings: IFO1270, 10 (ppm), SGB, 37° C., 48 hours, turbidity at 650 nm, read-out: Antimycotic activity (growth inhibitory rate), C.albicans
# Protocol: 3-1 In vitro antimycotic activity on Candida albicans
# Candida albicans IFO 1270 pre-cultured on a Sabouraud's glucose agar (SGA) plate medium at 37° C. […] was suspended in a sterilized physiological salt solution. The number of fungi in the resulting suspension was counted with a globulimeter, and adjusted so as to be 1×10^7 cell/ml with a sterilized physiological salt solution. This solution was used as an inoculum solution. Thereafter, 0.1 ml of this solution and 0.1 ml of a dimethyl sulfoxide (DMSO) solution of the test compound were added to 9.8 ml of Sabouraud's glucose broth (SGB), and shake-cultured at 37° C. for 48 hours. After culture, the medium turbidity was measured at 650 nm, and the growth-inhibitory rate of the fungus was calculated according to the following equation.
# Growth inhibitory rate (%)=(1-W/Y)×100
# Y: Medium turbidity of DMSO control group
# W: Medium turbidity of test compound group
# From this inhibitory rate, the antimycotic activity was shown by the symbols A to D. The test results of the test compounds are shown in Table 4.
# [2] = tested on: Trichophyton mentagrophytes IFO 5810; experiment: In vitro antimicrobial activity on Trichophyton mentagrophytes; format: cell-based; parameters: key: A: Fungus is not observed at all with the naked eye.; B: Presence of fungus is slightly observed on shaking the test tube.; C: Fungus of about less than one-fourth that of the DMSO control group is observed with the naked eye.; Fungus of about less than half that of the DMSO control group is observed with the naked eye; settings: 10 (ppm); SGB, 27° C., 7 days
# Protocol: 3-3 In vitro antimicrobial activity on Trichophyton mentagrophytes To Trichophyton mentagrophytes IFO 5810 precultured at 27° C. for 2 to 3 weeks on a Sabouraud's glucose agar (SGA) slant medium was added a sterilized physiological salt solution containing 0.1% (W/V) Tween 80. After conidia were made free from the solution, the solution was filtered through a sterilized two-sheet gauze to remove the mycelium mass. The number of the conidia in the resulting suspension was counted with a globulimeter and adjusted so as to be 1×10^6 conidia/ml with a sterilized physiological salt solution containing 0.1%(W/V) Tween 80. This solution was used as an inoculum solution. Thereafter, 0.1 ml of this solution and 0.1 ml of the dimethyl sulfoxide (DMSO) solution of the test compound were added to 9.8 ml of Sabouraud's glucose broth (SGB), and shake-cultured at 27° C. for 7 days.
SMILES,inhibition at 50 ppm (Trichoderma viride),inhibition at 50 ppm (Aspergillus niger),inhibition at 50 ppm (Rhizopus nigricans),pest or weed control at 200 ppm (Rhizoctonia solani),inhibition of growth at 10 µg/mL [1],"Antimycotic activity (degree of growth, naked eye), T.mentagrophytes [2]"
"CSc1snc(OCC#CI)c1C#N [Compound 1, 3-(3-iodo-2-propynyloxy)-4-cyano-5-methylthioisothiazole]",95 to 100%,80 to 94%,95 to 100%,60 to 79%,100%,A
"N#Cc1c(OCC#CI)nsc1SC(F)F [Compound 12, 3-(3-iodo-2-propynyloxy)-4-cyano-5-difluoromethylthioisothiazole]",95 to 100%,95 to 100%,95 to 100%,80 to 94%,100%,A
"COc1snc(OCC#CI)c1C#N [Compound 21, 3-(3-iodo-2-propynyloxy)-4-cyano-5-methoxyisothiazole]",95 to 100%,95 to 100%,95 to 100%,95 to 100%,100%,A
CC(C)Oc1snc(OCC#CI)c1C#N [Compound 23],95 to 100%,95 to 100%,95 to 100%,80 to 94%,100%,A
"CN(C)c1snc(OCC#CI)c1C#N [Compound 30, 3-(3-iodo-2-propynyloxy)-4-cyano-5-dimethylaminoisothiazole]",95 to 100%,95 to 100%,95 to 100%,95 to 100%,100%,A
"CS(=O)(=O)c1snc(OCC#CI)c1C#N [Compound 41, 3-(3-iodo-2-propynyloxy)-4-cyano-5-methylsulfonylisothiazole]",95 to 100%,95 to 100%,95 to 100%,80 to 94%,100%,A
N#Cc1c(OCC#CI)nsc1S(=O)(=O)C(F)F [Compound 43],95 to 100%,95 to 100%,95 to 100%,95 to 100%,100%,A
COc1nsc(OCC#CI)c1C#N [Compound 48],95 to 100%,95 to 100%,95 to 100%,95 to 100%,100%,A
CCOc1nsc(SCOCC#CI)c1C#N [Compound 54],95 to 100%,95 to 100%,95 to 100%,95 to 100%,100%,A
N#Cc1c(OC(F)F)nsc1SCOCC#CI [Compound 60],95 to 100%,95 to 100%,95 to 100%,95 to 100%,100%,A
CSc1snc(OCCC#CI)c1C#N [Compound 70],95 to 100%,95 to 100%,80 to 94%,95 to 100%,100%,A
N#Cc1c(OC(F)F)nsc1OCCC#CI [Compound 82],95 to 100%,95 to 100%,95 to 100%,95 to 100%,100%,A
N#Cc1c(OCOCC#CI)nsc1SC(F)F [Compound 90],95 to 100%,95 to 100%,95 to 100%,95 to 100%,100%,A
CCOc1snc(OCOCC#CI)c1C#N [Compound 96],95 to 100%,95 to 100%,95 to 100%,95 to 100%,100%,A
CSc1snc(OC(C)OCC#CI)c1C#N (stereo not drawn) [Compound 119],95 to 100%,95 to 100%,80 to 94%,80 to 94%,100%,A
CSc1nsc(SCOCC#CI)c1C#N [Compound 136],95 to 100%,95 to 100%,95 to 100%,80 to 94%,100%,A
